Reference: patent US5525626A (priority 1989, dated 1996)

Key:
Experiment in all cases: 3H-thymidine assay
Format in all cases: cell-based
[1] = system: At T 20; details: Mus musculus, AtT20
Procedure: (§1) The cell lines were cultivated as indicated in Example 1.
(§2) The antiproliferative effect of the 1,2-benzopyrone derivatives according to the invention on the tumor cell lines in each case was shown with the help of the ^3 H-thymidine insertion and with reference to growth curves.
(§3) In a 24-well-plate, in each case 10^4 cells of the line to be investigated were inoculated per well. Approximately 48 hours later the cells were half-confluent; the medium was then changed and replaced by a medium containing the active substance in question (cf Table 3). After a further 48 hours 0.25 μCi ^3 H-thymidine (Ammersham) was added to each well and the cells were incubated for a further 24 hours. Subsequently the cultures were washed twice with ice-cold PBS and the high-molecular-weight ^3 H-radioactivity was precipitated with 5% trichloroacetic acid for one hour at 4° C. After the washing of the cells in PBS the ^3 H-radioactivity was solubilized with 0.3M NaOH and measured in the counter. The growth-inhibition was determined by comparing the thymidine insertion of the cells treated with active substance with untreated cells.
(§4) The active substance concentration in each case was so chosen that ^3 H-thymidine insertion was 50% inhibited. The active substance concentrations used under this aspect for the active substances and cell lines in each case are given in table 4 below in μM/ml, […]

[2] = system: MCF-7 breast cancer cells; details: Homo sapiens, MCF7
Procedure: as §1, §2, §3, §4

[3] = system: K-562 leukemic cells; details: Homo sapiens, K562
Procedure: as §1, §2, §3, §4

[4] = system: CAKI-1 cells; details: Homo sapiens, CAKI-1
Procedure: as §1, §2, §3, §4

[5] = system: G-361 melanoma cells; details: Homo sapiens, G-361
[6] = system: HCV cells
[7] = system: Daudi leukemic cells; details: Homo sapiens
[8] = system: Tp 483 MG glioblastoma cells
[9] = system: Z-R-75-1 breast cancer cells; details: Homo sapiens, ZR-75-1
[10] = system: Tp 410 N neuroblastoma cells; details: Homo sapiens, Neuroblastoma cell
[11] = 1 μM/ml, read-out: 3H-thymidine tracer (%) of control
[12] = 2 μM/ml, read-out: 3H-thymidine tracer (%) of control
[13] = 4 μM/ml, read-out: 3H-thymidine tracer (%) of control
[14] = 8 μM/ml, read-out: 3H-thymidine tracer (%) of control
[15] = 16 μM/ml, read-out: 3H-thymidine tracer (%) of control
[16] = 25 μM/ml, read-out: 3H-thymidine tracer (%) of control
[17] = 50 μM/ml, read-out: 3H-thymidine tracer (%) of control
[18] = 100 μM/ml, read-out: 3H-thymidine tracer (%) of control
[19] = 250 μM/ml, read-out: 3H-thymidine tracer (%) of control
[20] = 500 μM/ml, read-out: 3H-thymidine tracer (%) of control
[21] = Table 4, read-out: active substance concentration at which 3H-thymidine insertion was 50% inhibited
[22] = Table 4, *: maximum usable dosage, no 50% inhibition, read-out: active substance concentration at which 3H-thymidine insertion was 50% inhibited
[23] = 1 μM/ml, read-out: 3H-thymidine insertion (%) of control
[24] = 2 μM/ml, read-out: 3H-thymidine insertion (%) of control
[25] = 4 μM/ml, read-out: 3H-thymidine insertion (%) of control
[26] = 8 μM/ml, read-out: 3H-thymidine insertion (%) of control
[27] = 16 μM/ml, read-out: 3H-thymidine insertion (%) of control
[28] = 25 μM/ml, read-out: 3H-thymidine insertion (%) of control
[29] = 50 μM/ml, read-out: 3H-thymidine insertion (%) of control
[30] = 100 μM/ml, read-out: 3H-thymidine insertion (%) of control
[31] = 250 μM/ml, read-out: 3H-thymidine insertion (%) of control
[32] = 500 μM/ml, read-out: 3H-thymidine insertion (%) of control

Structure (SMILES): O=c1ccc2ccc(O)cc2o1 [7-OH-1,2-BP, 7-hydroxy-1,2-benzopyrone]
- activity at 1 µM [1, 11]: 98%
- activity at 2 µM [1, 12]: 89%
- activity at 4 µM [1, 13]: 85%
- activity at 8 µM [1, 14]: 78%
- activity at 16 µM [1, 15]: 65%
- activity at 25 µM [1, 16]: 60%
- activity at 50 µM [1, 17]: 62%
- activity at 100 µM [1, 18]: 44%
- activity at 250 µM [1, 19]: 38%
- activity at 500 µM [1, 20]: 31%
- IC50 [1, 21]: 50 µM
- activity at 1 µM [2, 11]: 98%
- activity at 2 µM [2, 12]: 94%
- activity at 4 µM [2, 13]: 88%
- activity at 8 µM [2, 14]: 82%
- activity at 16 µM [2, 15]: 75%
- activity at 25 µM [2, 16]: 69%
- activity at 50 µM [2, 17]: 62%
- activity at 100 µM [2, 18]: 51%
- activity at 250 µM [2, 19]: 43%
- activity at 500 µM [2, 20]: 29%
- IC50 [2, 22]: 100 µM
- activity at 1 µM [3, 11]: 100%
- activity at 2 µM [3, 12]: 91%
- activity at 4 µM [3, 13]: 84%
- activity at 8 µM [3, 14]: 76%
- activity at 16 µM [3, 15]: 67%
- activity at 25 µM [3, 16]: 53%
- activity at 50 µM [3, 17]: 47%
- activity at 100 µM [3, 18]: 42%
- activity at 250 µM [3, 19]: 39%
- activity at 500 µM [3, 20]: 37%
- IC50 [3, 21]: 50 µM
- activity at 1 µM [4, 11]: 100%
- activity at 2 µM [4, 12]: 98%
- activity at 4 µM [4, 13]: 90%
- activity at 8 µM [4, 14]: 81%
- activity at 16 µM [4, 15]: 76%
- activity at 25 µM [4, 16]: 62%
- activity at 50 µM [4, 17]: 57%
- activity at 100 µM [4, 18]: 49%
- activity at 150 µM ([4]; 150 μM/ml, read-out: 3H-thymidine tracer (%) of control): 44%
- activity at 500 µM [4, 20]: 40%
- IC50 [4, 22]: 100 µM
- activity at 1 µM [5, 11]: 94%
- activity at 2 µM [5, 12]: 91%
- activity at 4 µM [5, 13]: 77%
- activity at 8 µM [5, 14]: 77%
- activity at 16 µM [5, 15]: 74%
- activity at 25 µM [5, 16]: 68%
- activity at 50 µM [5, 17]: 58%
- activity at 100 µM [5, 18]: 53%
- activity at 250 µM [5, 19]: 42%
- activity at 500 µM [5, 20]: 38%
- IC50 [5, 22]: 125 µM
- activity at 1 µM [6, 11]: 98%
- activity at 2 µM [6, 12]: 95%
- activity at 4 µM [6, 13]: 88%
- activity at 8 µM [6, 14]: 82%
- activity at 16 µM [6, 15]: 74%
- activity at 25 µM [6, 16]: 69%
- activity at 50 µM [6, 17]: 63%
- activity at 250 µM [6, 19]: 57%
- activity at 500 µM [6, 20]: 50%
- IC50 [6, 22]: 500 µM
- activity at 1 µM [7, 11]: 98%
- activity at 2 µM [7, 12]: 89%
- activity at 4 µM [7, 13]: 82%
- activity at 8 µM [7, 14]: 76%
- activity at 16 µM [7, 15]: 63%
- activity at 25 µM [7, 16]: 54%
- activity at 50 µM [7, 17]: 49%
- activity at 100 µM [7, 18]: 38%
- activity at 250 µM [7, 19]: 35%
- activity at 500 µM [7, 20]: 28%
- IC50 [7, 21]: 50 µM
- activity at 1 µM [8, 23]: 97%
- activity at 2 µM [8, 24]: 95%
- activity at 4 µM [8, 25]: 89%
- activity at 8 µM [8, 26]: 81%
- activity at 16 µM [8, 27]: 69%
- activity at 25 µM [8, 28]: 66%
- activity at 50 µM [8, 29]: 39%
- activity at 100 µM [8, 30]: 32%
- activity at 250 µM [8, 31]: 27%
- activity at 500 µM [8, 32]: 25%
- IC50 [8, 21]: 25 µM
- activity at 1 µM [9, 11]: 96%
- activity at 2 µM [9, 12]: 91%
- activity at 4 µM [9, 13]: 82%
- activity at 8 µM [9, 14]: 73%
- activity at 16 µM [9, 15]: 65%
- activity at 25 µM [9, 16]: 55%
- activity at 50 µM [9, 17]: 49%
- activity at 100 µM [9, 18]: 43%
- activity at 250 µM [9, 19]: 39%
- activity at 500 µM [9, 20]: 27%
- IC50 [9, 22]: 50 µM
- activity at 1 µM [10, 23]: 96%
- activity at 2 µM [10, 24]: 91%
- activity at 4 µM [10, 25]: 80%
- activity at 8 µM [10, 26]: 73%
- activity at 16 µM [10, 27]: 67%
- activity at 25 µM [10, 28]: 50%
- activity at 50 µM [10, 29]: 48%
- activity at 100 µM [10, 30]: 42%
- activity at 250 µM [10, 31]: 36%
- activity at 500 µM [10, 32]: 21%
- IC50 [10, 21]: 25 µM
